Data reported in US8101783B1, “Titanium-maltol compound and method of synthesizing the same” (priority 2007, dated 2012).

Legend:
[1] = Stability of the crystals removed from the mother liquor; format: physicochemical; details: when removed from the mother liquor
[2] = Solubility of the Ti(IV)-maltol complexes in water and in CH2Cl2; format: physicochemical
Method: Alternatively, more than two (and preferably three) equivalents of maltol could be used to provide an excess and ensure completion of the reaction.
However, at pH of 8.4 the complex becomes soluble in water but promotes tetramerization of the [Ti(maltolato)2(OH)2] species. In fact, this can be monitored by NMR spectroscopy. A pure sample of cis-[Ti(maltolato)2(OH)2] was dissolved in D2O at pH of 8.4. […] These two species belong most likely to cis-[Ti(maltolato)2(OH)2] and [Ti4(maltolato)8(μ-O)4]. After 24 hours the tetrameric species continues increasing while the monomeric species decreases. Upon standing for two weeks, at pH of 8.4, this solution yields orange crystals suitable for X-ray diffraction. Evidently, Ti(maltolato)2(OH)2 further reacts to form a tetranuclear titanium complex, which crystallizes as a hydrate, [Ti4(maltolato)8(μ-O)4].18H2O, Single crystal X-ray structure determination was pursued on this high pH species, which solid state structure is illustrated in FIG. 2. The crystal data and structure refinement details as well as the bonding parameters are summarized below in Table 1 and Table 2, respectively.
Electrochemical behavior of Ti(maltolato)2(OH)2 was investigated using cyclic voltammetry (cv). Ti(maltolato)2(OH)2 in CH2Cl2/[NBu4] […] If this potential is compared with previously reported Ti(IV)-maltol and Ti(IV)-guaiacol complexes, it resembles to reduction potentials of monomeric species such as Ti(maltolato)2(OEt)2 (−1.0 V) and Ti(maltolato)2(Cl)2 (−1.55 V) and not to the tetrameric species [Ti4(guaiacolato)8(μ-O)4] (−1.94 V).

[3] = physiological pH; cited from earlier work

## Cc1occc(=O)c1[O-].Cc1occc(=O)c1[O-].Cc1occc(=O)c1[O-].Cc1occc(=O)c1[O-].Cc1occc(=O)c1[O-].Cc1occc(=O)c1[O-].Cc1occc(=O)c1[O-].Cc1occc(=O)c1[O-].O.O.O.O.O.O.O.O.O.O.O.O.O.O.O.O.O.O.[O-2].[O-2].[O-2].[O-2].[Ti+4].[Ti+4].[Ti+4].[Ti+4] [[Ti4(maltolato)8(μ-O)4].18H2O]
[1]
  stability of crystals: unstable and undergoes dehydration

## Cc1occc(=O)c1[O-].Cc1occc(=O)c1[O-].Cc1occc(=O)c1[O-].Cc1occc(=O)c1[O-].Cc1occc(=O)c1[O-].Cc1occc(=O)c1[O-].Cc1occc(=O)c1[O-].Cc1occc(=O)c1[O-].[O-2].[O-2].[O-2].[O-2].[Ti+4].[Ti+4].[Ti+4].[Ti+4] [[Ti4(maltolato)8(μ-O)4]]
[2]; CH2Cl2, cyclic voltammetry attempt
  solubility in CH2Cl2: lack of solubility

## CC(=O)[CH-]C(=O)c1ccccc1.CC(=O)[CH-]C(=O)c1ccccc1.CC[O-].CC[O-].[Ti+4] [budotitane]
[3]
  hydrolytic stability: low hydrolytic stability

## dihydroxobis(maltolato)titanium(IV) [Ti(maltolato)2(OH)2]
[2]; low pH (5.4)
  solubility in water: slightly water soluble
[2]; pH of 8.4, promotes tetramerization
  solubility in water: soluble

## titanocene dichloride
[3]
  hydrolytic stability: low hydrolytic stability
